Assay results as given in article PMC8794255, “Small molecule inhibitor of Igf2bp1 represses Kras and a pro-oncogenic phenotype in cancer cells” (RNA Biology, 2021).
Several values for one entry are separate records, joined by “and”; a condition that tells them apart may be missing. Identical values can stand only once.

How the values were obtained:
La = molecular target: T1, La (Homo sapiens, UniProt P05455); experiment: MST, La protein; type: binding
T1 sequence (P05455 1-408): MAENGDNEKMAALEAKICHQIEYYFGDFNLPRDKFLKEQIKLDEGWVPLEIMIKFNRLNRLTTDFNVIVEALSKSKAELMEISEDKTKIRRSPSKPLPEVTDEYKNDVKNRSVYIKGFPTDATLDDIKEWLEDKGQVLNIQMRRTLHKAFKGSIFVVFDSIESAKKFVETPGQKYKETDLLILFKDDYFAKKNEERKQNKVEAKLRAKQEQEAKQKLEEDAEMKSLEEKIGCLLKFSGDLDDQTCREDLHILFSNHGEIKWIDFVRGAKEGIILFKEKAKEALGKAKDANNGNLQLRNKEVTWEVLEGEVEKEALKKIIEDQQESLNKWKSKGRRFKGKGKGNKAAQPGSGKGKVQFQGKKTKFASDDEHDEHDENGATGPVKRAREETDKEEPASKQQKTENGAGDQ

Igf2bp1 KH12 di-domain = molecular target: T2, Igf2bp1 KH12 di-domain (Homo sapiens, UniProt Q9NZI8); experiment: MST, Igf2bp1 KH12 di-domain; type: binding
T2 construct: 6xHis/GST (N, cleaved yes); made in house; host or cells: E. coli BL21(DE3)
Method: (§1) Recombinant full-length Igf2bp1 protein was labelled with RED-tris-NTA dye using a Monolith NT His-Tag Labelling Kit (NanoTemper) while RRM12, KH12 and KH34 di-domain peptides were labelled using the Protein Labelling Kit RED NHS 2nd generation (NanoTemper). Labelled proteins were spun at 15,000 g for 5 min to eliminate aggregates. All samples were 2X labelled protein mix of Igf2bp1 (200 nM) in PBST and were combined (1:1) with serial dilutions of compound or Kras6 RNA in binding buffer (10mMTris pH = 7.5, 100 mM NaCl, 0.1 mM EDTA, 0.06% IPEGAL, 0.02 μg/μL tRNA, 2 mM DTT, 0.1 μg/μL heparin) in final volume of 20 μL, room temperature for 15 min. Samples were then loaded into standard capillaries (NanoTemper) and read in the Monolith NT.115 scanner (NanoTemper) using the red filter with reading conditions of 95% LED power and 40% MST power, 5 sec fluorescence before, 30 sec MST on, 5 sec fluorescence after and 25 sec delay between samples. Results were analysed using the MO Control software (NanoTemper) for curve fitting to KD.
(§2) The open reading frame of Igf2bps were cloned into the pET-21(d) plasmid (Novagen) between the Nco1 and Xho1 sites, as previously described. […]

Igf2bp1 RRM12 di-domain = molecular target: T3, Igf2bp1 RRM12 di-domain (Homo sapiens, UniProt Q9NZI8); experiment: MST, Igf2bp1 RRM12 di-domain; details: read-out: KD of binding to RRM12
T3 construct: Human Igf2bp1 di-domains RRM12 (M1-P188) and KH34 (P387-A574); 6xHis (N, cleaved yes); made in house; host or cells: E. coli BL21(DE3)
Method: as §1, §2

ES2 cells = experiment: Cell proliferation assay (Incucyte), ES2; type: cell-based, human; details: ES2, up to 20 μM
Method: (§3) ES2, H1299 and HEK293 cells were seeded in a 96 well plate (5X10^3 cells per well) for 24 hours before adding the compound at increasing concentrations. After an additional 24 hours, the plate was incubated in an IncuCyte® S3 Live-Cell Analysis System (Essen BioScience). The wells were filmed for 72 hours, and then analysed for proliferation rate Using IncuCyte® S3 Live-Cell Analysis System (Essen BioScience)

Igf2bp1 KH34 di-domain = molecular target: T4, Igf2bp1 KH34 di-domain (Homo sapiens, UniProt Q9NZI8); experiment: MST, Igf2bp1 KH34 di-domain; details: read-out: KD of binding to KH34
T4 construct: Human Igf2bp1 di-domains RRM12 (M1-P188) and KH34 (P387-A574); 6xHis (N, cleaved yes); made in house; host or cells: E. coli BL21(DE3)
Method: as §1, §2

H1299 cells [1] = experiment: Cell proliferation assay (Incucyte), H1299; type: cell-based, human
Method: as §3

H1299 cells [2] = experiment: qPCR of Igf2bp1 target RNAs in H1299 cells; type: cell-based, human
Method: Cells were grown for 12 hours in 12 well plates prior to incubation with the compound at different concentrations for an additional 12 or 24 hours. Total RNA was then extracted using EZ-RNA total RNA isolation kit (Biological Industries) and cDNA prepared from the RNA using the First Strand cDNA Synthesis kit (Quanta bio). Real time PCR was performed with Fast SYBR Green Master Mix (Thermo Fisher Scientific), and cDNA expression analysed with the Bio-Rad CFX Manager 3.1.

HEK293 cells = experiment: Wound healing (cell migration) assay, HEK293; type: cell-based, human
Method: Cells were seeded in 96 IncuCyte® ImageLock plates (20X10^3 cells per well) for 24 hours, to a near confluency of 95%, before the addition of increasing concentrations of compound. After a further 24 hours, wells were scratched using the IncuCyte® 96-well WoundMaker Tool, and the cells cultured for an additional 48 hours using the IncuCyte® S3 Live-Cell Analysis System (Essen BioScience). The plate was imaged at increments of 120 minutes for a period of 48 hours, and then analysed for relative wound healing.

T4 sequence (Q9NZI8 387-574): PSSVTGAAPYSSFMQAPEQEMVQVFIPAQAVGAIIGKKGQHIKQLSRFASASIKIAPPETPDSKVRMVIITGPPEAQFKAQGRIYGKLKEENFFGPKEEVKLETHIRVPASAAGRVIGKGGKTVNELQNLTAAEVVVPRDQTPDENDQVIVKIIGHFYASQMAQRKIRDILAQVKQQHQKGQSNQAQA
T3 sequence (Q9NZI8 1-188): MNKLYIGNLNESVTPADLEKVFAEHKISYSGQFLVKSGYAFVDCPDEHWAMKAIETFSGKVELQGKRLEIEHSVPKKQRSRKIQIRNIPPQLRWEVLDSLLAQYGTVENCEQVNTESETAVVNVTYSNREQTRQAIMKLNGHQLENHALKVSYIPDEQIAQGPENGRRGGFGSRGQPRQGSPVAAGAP
T2 sequence (Q9NZI8 194-369): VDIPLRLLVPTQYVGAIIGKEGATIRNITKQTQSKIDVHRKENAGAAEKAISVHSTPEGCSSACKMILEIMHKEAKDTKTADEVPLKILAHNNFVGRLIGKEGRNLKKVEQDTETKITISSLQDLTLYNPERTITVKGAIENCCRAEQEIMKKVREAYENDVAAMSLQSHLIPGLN

Binding to La (La): No binding
Binding to KH12 (Igf2bp1 KH12 di-domain): no binding was observed
Kd (Igf2bp1 RRM12 di-domain): 1.5 µM
Kd (Igf2bp1 KH34 di-domain): 7.1 µM and 7.2 µM
SMILES: O=C(c1ccc(Cn2cnnn2)cc1)N1CCCC(Nc2ccc3c(c2)OCO3)C1 (stereo not drawn) [compound 7773]
Cell proliferation (ES2 cells): remarkably unaffected
Effect on cell proliferation or cytotoxicity (H1299 cells [1]; H1299, 20 μM 7773): virtually no effect
Cell proliferation (H1299 cells [1]; H1299, up to 20 μM): remarkably unaffected
Steady state level of Kras mRNA (H1299 cells [2]; H1299, 20 μM 7773, 12 hours): already reduced
Steady state levels of CD44, Kras, cMyc and SRF RNA (H1299 cells [2]; H1299, 20 μM 7773, 24 hours): all of the RNAs significantly reduced
Levels of control RNAs that are not targets of Igf2bp1 (H1299 cells [2]; H1299, 24 hours): not significantly affected
Wound healing (HEK293 cells; HEK293, 20 μM): strongly inhibited
Wound healing (HEK293 cells; HEK293, lowest concentration 5 μM): discernible inhibition
